Data set [1] can be described thus: Neutralization of propyl mercaptane (headspace GC-MS). As to conditions: 0.25 ml 4 mM test compound + 0.25 ml 4 mM propyl mercaptane in dimethylsulfoxide/H2O 1:1, room temperature, 3 h, vs blank samples. Here is the method:
A 23×75 mm-headspace vial is charged with 0.25 ml of a 4 mM-solution of the test compound in dimethylsulfoxide/H2O 1:1. One blank sample containing 0.25 ml of dimethylsulfoxide/H2O 1:1 is prepared per 3 test samples. The vials are sealed with a 20 mm-aluminium seal containing a rubber septum. At 15 min-intervals (which is the time of 1 GC-analysis run) 0.25 ml of a 4 mM-solution of propyl mercaptane in dimethylsulfoxide/H2O 1:1 is added to each sample via cannula.
The samples are left at room temperature for 3 h, then submitted to headspace analysis using a headspace auto sampler connected to a GC-MS apparatus. Per sample 250 μl of headspace is injected. The peak areas (MS-ion current) of propyl mercaptane is compared to the averaged value from the blank samples to calculate the reduction of headspace concentration.

Data set [2] is described as follows: Olfactory evaluation against sweat-malodour reconstitution (panel test). As to conditions: 50 μl of 1% solution in ethanol on malodour treated cotton swatch; LMS rating, expert panel of 20 assessors; relative to swatch without test compound. Here is the method: An ethanolic solution of axilla-malodour reconstitution is applied on a 1×1 cm cotton swatch (100 ∥l, 0.1% wt/wt), then 50 μl of the test compound (1% solution in ethanol) are dosed to the malodour treated swatches. The malodour intensity is rated on a LMS (labelled magnitude scale) by an expert panel of 20 assessors. The results are then expressed in % reduction relative to malodour of a swatch without adding a test compound.

Data set [3] is described as follows: Neutralization of human sweat in aqueous environment, two chamber sample (headspace GC-MS). As to conditions: 5.0 μmol test compound on viscose filter, 16 h at 35° C., vs blank samples; for % Headspace reduction of malodours compounds: 3-mercapto-1-butanol: aqueous 3-mercapto-1-butanol (17 mM) with 3-methyl hexanoic acid (23 mM); for % Headspace reduction of malodours compounds: 3-methyl hexanoic acid: aqueous 3-methyl hexanoic acid (23 mM) with 3-mercapto-1-butanol (17 mM). Here is the method:
A two chamber sample was prepared as depicted in FIG. 1. It is composed of the headspace vial (1′) described in example 26 as the outer containment and a standard HPLC-auto sampler vial (2′) as the inner containment. The test compound (5.0 μmol) is absorbed on viscose filter (3′) (applied as CH2Cl2-solution and let evaporate). An amount of 100 ul of an aqueous solution of 3-methyl hexanoic acid (23 mM) and 3-mercapto-1-butanol (17 mM), is placed on the bottom of the inner vial (2′). A screw cap containing the filter (3′) is screwed tightly on the HPLC-vial (2′), which is placed in the headspace vial (1′). The headspace vial is closed with an aluminium seal containing a rubber septum (5′). Blank samples containing an empty filter (3′) and the aqueous solution of 3-methyl hexanoic acid and 3-mercapto-1-butanol in the inner vial as described above are prepared (1 blank per 3 test samples). The samples are left standing for 16 h at 35° C., then submitted to headspace analysis as described in example 26.
The malodourant compounds (3-methyl hexanoic acid and 3-mercapto-1-butanol) diffuse through the filter into the outer volume (6′). Therefore a compound of formula 1 (neutralizing substance) applied on the filter (3′) will reduce the headspace concentration of the sweat malodourants in the outer volume compared to the blank samples.

In the case of `CCCC(=O)/C(=C/C(=O)OCC)C(=O)OCC`, the “% Headspace Reduction” value in data set [1] was 100%.

On to `CCOC(=O)C(O)C(C(C)=O)C(=O)OC(C)(C)C` (stereo not shown), for which the “% Headspace Reduction” value in data set [1] came out at 45%.

Turning to `CC(=O)C(=CC(C)CCC=C(C)C)C(C)=O` (stereo not shown), the “% Headspace Reduction” value in data set [1] was 8%.

Turning to `CCOC(=O)C(O)C(C(C)=O)C(=O)OCC` (stereo not shown), the “% Headspace Reduction” value in data set [1] came out at 62%.

On to `CCOC(=O)C(C)=C(C(=O)OCC)C(=O)OCC`, for which, in data set [1], the “% Headspace Reduction” value came out at 20%.

Consider `CC(=O)C(=CC(C)C)C(C)=O`, for which the “% Headspace Reduction” value in data set [1] turned out to be 34%.

With `CCOC(=O)C(OCC)C(C(C)=O)C(C)=O` (stereo not shown), the “% Headspace Reduction” value in data set [1] came to 82%.

As to `CCOC(=O)C(OCC)C(C(C)=O)C(=O)c1ccccc1` (stereo not shown), in data set [1], the “% Headspace Reduction” value worked out at 22%.

For the compound `CCOC(=O)C(OC)C(C(C)=O)C(=O)OCC` (stereo not shown), the “% Headspace Reduction” value in data set [1] turned out to be 54%.

Turning to `CCCC(=O)C(C(=O)OCC)C(OCC)C(=O)OCC` (stereo not shown), in data set [1], the “% Headspace Reduction” value is 38%.

As for `CCOC(=O)C(O)C(C(=O)OCC)C(=O)c1ccccc1` (stereo not shown), in data set [1], the “% Headspace Reduction” value stood at 20%.

On to `CCOC(=O)C(OCC)C(C(=O)OCC)C(=O)c1ccccc1` (stereo not shown), for which the “% Headspace Reduction” value in data set [1] is recorded as 10%.

In the case of `CCOC(=O)C(O)C(C(=O)OC)C(=O)C(C)(C)C` (stereo not shown), the “% Headspace Reduction” value in data set [1] was determined as 15%.

Turning to `CCOC(=O)/C=C(\C(C)=O)C(=O)c1ccccc1`, the “% Headspace Reduction” value in data set [1] came out at 100%.

As for `CCOC(=O)/C=C(\C(=O)OC)C(=O)C(C)(C)C`, the “% Headspace Reduction” value in data set [1] stood at 82%.

Consider `CCCC(=O)/C(C(=O)OCC)=C(\O)C(=O)OCC`, for which, in data set [1], the “% Headspace Reduction” value worked out at 15%.

`CCCCCCOC(=O)/C=C/C(=O)OCCCCCC` [DHF, Dihexylfumarate, reference compound]: in data set [2], the “% Reduction of axilla malodour intensity in panel test” value (“% Reduction” for short) is 68%. The “% Headspace Reduction” value in data set [1] is on record as 5%. Besides, in data set [3], the “% Headspace reduction of malodours compounds: 3-mercapto-1-butanol” value (from here on “% Headspace reduction … 3-mercapto-1-butanol”) is 10% and the “% Headspace reduction of malodours compounds: 3-methyl hexanoic acid” value (from here on “% Headspace reduction … 3-methyl hexanoic acid”) is 0%.

The melting point is the temperature of the solid-liquid transition. Compound `CCOc1cc(C=C(C(C)=O)C(C)=O)ccc1O` [Example 7] showed a melting point of 126 to 128 °C.

For the compound `CCOC(=O)/C=C(/C(C)=O)C(=O)OCC` [drawing 36], the “% Headspace Reduction” value in data set [1] worked out at 100%.

Turning to `CCOC(=O)C=C(C(C)=O)C(C)=O` [drawing 38], the “% Headspace Reduction” value in data set [1] is given as 100%.

`CCOC(=O)C(OCC)C(C(C)=O)C(=O)OCC` (stereo not shown) [drawing 42]: in data set [1], the “% Headspace Reduction” value stood at 64%.

Turning to `CCOC(=O)/C=C(\C(=O)OCC)C(=O)c1ccccc1` [drawing 50], the “% Headspace Reduction” value in data set [1] worked out at 100%.

As to `CCCCCCCC=C(C(=O)OCC)C(=O)OCC` [drawing 55], in data set [3], the “% Headspace reduction … 3-mercapto-1-butanol” value was found to be 22% and the “% Headspace reduction … 3-methyl hexanoic acid” value turned out to be 0%.

As to `CCCCCCC/C=C(/C(C)=O)C(=O)OCC` [drawing 56], in data set [3], the “% Headspace reduction … 3-mercapto-1-butanol” value was 35% and the “% Headspace reduction … 3-methyl hexanoic acid” value came out at 10%.

In the case of `CCOC(=O)/C=C(/C(C)=O)C(=O)OCC` [drawing 57], in data set [3], the “% Headspace reduction … 3-mercapto-1-butanol” value was determined as 98% and the “% Headspace reduction … 3-methyl hexanoic acid” value is reported as 10%.

For `CCOC(=O)C=C(C(C)=O)C(C)=O` [drawing 58], in data set [3], the “% Headspace reduction … 3-mercapto-1-butanol” value amounted to 100% and the “% Headspace reduction … 3-methyl hexanoic acid” value turned out to be 0%.

As to `CCOC(=O)C(OCC)C(C(C)=O)C(=O)OCC` (stereo not shown) [drawing 59], in data set [3], the “% Headspace reduction … 3-mercapto-1-butanol” value is 100% and the “% Headspace reduction … 3-methyl hexanoic acid” value is recorded as 0%.

For the compound `CCOC(=O)/C=C(\C(=O)OCC)C(=O)c1ccccc1` [drawing 60], in data set [3], the “% Headspace reduction … 3-mercapto-1-butanol” value is on record as 85% and the “% Headspace reduction … 3-methyl hexanoic acid” value amounted to 28%.

Take `CCOc1cc(C=C(C(C)=O)C(C)=O)ccc1O` [drawing 61]: in data set [3], the “% Headspace reduction … 3-mercapto-1-butanol” value turned out to be 41% and the “% Headspace reduction … 3-methyl hexanoic acid” value is given as 9%.

For the compound `CCCCCCCC=C(C(=O)OCC)C(=O)OCC` [drawing 62], the “% Reduction” value in data set [2] is listed as 59%.

`CCCCCCC/C=C(/C(C)=O)C(=O)OCC` [drawing 63]: the “% Reduction” value in data set [2] was determined as 82%.

As to `CCOC(=O)/C=C(/C(C)=O)C(=O)OCC` [drawing 64], the “% Reduction” value in data set [2] is listed as 76%.

Turning to `CCOC(=O)C(OCC)C(C(C)=O)C(=O)OCC` (stereo not shown) [drawing 65], in data set [2], the “% Reduction” value was determined as 67%.

Values taken from patent US20080305066A1, “2-C-Substituted Propane-1,3-Dicarbonyl Compounds and Their Use in Neutralising Malodour” (GIVAUDAN SA, priority 2005, published 2008).
